ChEMBL document CHEMBL3885881, “DrugMatrix”

Species: Rattus norvegicus
Assay: DrugMatrix - Regimen: Daily Repeat
Format: toxicity, organism-based, Sprague-Dawley
Set-up: regimen Daily Repeat, gender Male, age 6-8 weeks
Settings: in vivo, po, 201 mg/kg, route oral GAVAGE, dose level High, vehicle .5 % CMC; for ABSOLUTE BASOPHIL / ABSOLUTE EOSINOPHIL / ABSOLUTE LYMPHOCYTE / ABSOLUTE MONOCYTE / ABSOLUTE SEGMENTED NEUTROPHIL / BASOPHIL / EOSINOPHIL / ERYTHROCYTE COUNT / HEMATOCRIT / HEMOGLOBIN / LEUKOCYTE COUNT / LYMPHOCYTE / MEAN CORPUSCULAR HEMOGLOBIN / MEAN CORPUSCULAR HEMOGLOBIN CONCENTRATION / MEAN CORPUSCULAR VOLUME / MONOCYTE / NEUTROPHIL / NUCLEATED RED BLOOD CELLS / PLATELET COUNT: tissue Blood; for ALANINE AMINOTRANSFERASE / ALBUMIN / ALKALINE PHOSPHATASE / ASPARTATE AMINOTRANSFERASE / BLOOD UREA NITROGEN / CARBON DIOXIDE / CHLORIDE / CHOLESTEROL / CREATINE PHOSPHOKINASE / CREATININE / GLUCOSE / LACTATE DEHYDROGENASE / LIPASE / PHOSPHORUS / POTASSIUM / SODIUM / TOTAL BILIRUBIN / TOTAL PROTEIN / URIC ACID: tissue Plasma

Compound: CCCCCCNC(=O)n1cc(F)c(=O)[nH]c1=O [CARMOFUR]
- ABSOLUTE BASOPHIL (72 h, time 3 day): 0 CELLS/uL
- ABSOLUTE EOSINOPHIL (72 h, time 3 day): 0 CELLS/uL
- ABSOLUTE LYMPHOCYTE (72 h, time 3 day): 13152.33 CELLS/uL
- ABSOLUTE MONOCYTE (72 h, time 3 day): 146.67 CELLS/uL
- ABSOLUTE SEGMENTED NEUTROPHIL (72 h, time 3 day): 901 CELLS/uL
- BASOPHIL (72 h, time 3 day): 0%
- EOSINOPHIL (72 h, time 3 day): 0%
- ERYTHROCYTE COUNT (72 h, time 3 day): 5.67 x10E6/uL
- HEMATOCRIT (72 h, time 3 day): 35.7%
- HEMOGLOBIN (72 h, time 3 day): 14.47 G/DL
- LEUKOCYTE COUNT (72 h, time 3 day): 14.2 x10E3/uL
- LYMPHOCYTE (72 h, time 3 day): 92.67%
- MEAN CORPUSCULAR HEMOGLOBIN (72 h, time 3 day): 25.5 pg
- MEAN CORPUSCULAR HEMOGLOBIN CONCENTRATION (72 h, time 3 day): 40.53 G/DL
- MEAN CORPUSCULAR VOLUME (72 h, time 3 day): 62.97 fL
- MONOCYTE (72 h, time 3 day): 1%
- NEUTROPHIL (72 h, time 3 day): 6.33%
- NUCLEATED RED BLOOD CELLS (72 h, time 3 day): 0 /100WBC
- PLATELET COUNT (72 h, time 3 day): 1275.33 x10E3/uL
- ALANINE AMINOTRANSFERASE (72 h, time 3 day): 52.67 u/L
- ALBUMIN (72 h, time 3 day): 4.37 G/DL
- ALKALINE PHOSPHATASE (72 h, time 3 day): 367 u/L
- ASPARTATE AMINOTRANSFERASE (72 h, time 3 day): 69 u/L
- BLOOD UREA NITROGEN (72 h, time 3 day): 23.33 mg/dL
- CARBON DIOXIDE (72 h, time 3 day): 21 mmol/L
- CHLORIDE (72 h, time 3 day): 102.33 MEQ/L
- CHOLESTEROL (72 h, time 3 day): 81 mg/dL
- CREATINE PHOSPHOKINASE (72 h, time 3 day): 192.67 u/L
- CREATININE (72 h, time 3 day): 0.27 mg/dL
- GLUCOSE (72 h, time 3 day): 160 mg/dL
- LACTATE DEHYDROGENASE (72 h, time 3 day): 198.33 u/L
- LIPASE (72 h, time 3 day): 9.33 u/L
- PHOSPHORUS (72 h, time 3 day): 12 mg/dL
- POTASSIUM (72 h, time 3 day): 6.3 MEQ/L
- SODIUM (72 h, time 3 day): 145.27 MEQ/L
- TOTAL BILIRUBIN (72 h, time 3 day): 0.17 mg/dL
- TOTAL PROTEIN (72 h, time 3 day): 6.33 G/DL
- URIC ACID (72 h, time 3 day): 1.77 mg/dL
- ABSOLUTE BASOPHIL (120 h, time 5 day): 0 CELLS/uL
- ABSOLUTE EOSINOPHIL (120 h, time 5 day): 0 CELLS/uL
- ABSOLUTE LYMPHOCYTE (120 h, time 5 day): 4570 CELLS/uL
- ABSOLUTE MONOCYTE (120 h, time 5 day): 201.5 CELLS/uL
- ABSOLUTE SEGMENTED NEUTROPHIL (120 h, time 5 day): 2778.5 CELLS/uL
- BASOPHIL (120 h, time 5 day): 0%
- EOSINOPHIL (120 h, time 5 day): 0%
- ERYTHROCYTE COUNT (120 h, time 5 day): 8.62 x10E6/uL
- HEMATOCRIT (120 h, time 5 day): 52.2%
- HEMOGLOBIN (120 h, time 5 day): 20.65 G/DL
- LEUKOCYTE COUNT (120 h, time 5 day): 7.55 x10E3/uL
- LYMPHOCYTE (120 h, time 5 day): 62.5%
- MEAN CORPUSCULAR HEMOGLOBIN (120 h, time 5 day): 24 pg
- MEAN CORPUSCULAR HEMOGLOBIN CONCENTRATION (120 h, time 5 day): 39.6 G/DL
- MEAN CORPUSCULAR VOLUME (120 h, time 5 day): 60.55 fL
- MONOCYTE (120 h, time 5 day): 2.5%
- NEUTROPHIL (120 h, time 5 day): 35%
- NUCLEATED RED BLOOD CELLS (120 h, time 5 day): 0 /100WBC
- PLATELET COUNT (120 h, time 5 day): 1522.5 x10E3/uL
- ALANINE AMINOTRANSFERASE (120 h, time 5 day): 43.5 u/L
- ALBUMIN (120 h, time 5 day): 5.05 G/DL
- ALKALINE PHOSPHATASE (120 h, time 5 day): 216 u/L
- ASPARTATE AMINOTRANSFERASE (120 h, time 5 day): 414 u/L
- BLOOD UREA NITROGEN (120 h, time 5 day): 219.5 mg/dL
- CARBON DIOXIDE (120 h, time 5 day): 19 mmol/L
- CHLORIDE (120 h, time 5 day): 115 MEQ/L
- CHOLESTEROL (120 h, time 5 day): 78.5 mg/dL
- CREATINE PHOSPHOKINASE (120 h, time 5 day): 2230 u/L
- CREATININE (120 h, time 5 day): 0.29 mg/dL
- GLUCOSE (120 h, time 5 day): 164 mg/dL
- LACTATE DEHYDROGENASE (120 h, time 5 day): 1956 u/L
- LIPASE (120 h, time 5 day): 24.5 u/L
- PHOSPHORUS (120 h, time 5 day): 20.35 mg/dL
- POTASSIUM (120 h, time 5 day): 5.82 MEQ/L
- SODIUM (120 h, time 5 day): 154.1 MEQ/L
- TOTAL BILIRUBIN (120 h, time 5 day): 0.6 mg/dL
- TOTAL PROTEIN (120 h, time 5 day): 6.6 G/DL
- URIC ACID (120 h, time 5 day): 4.25 mg/dL
